The EC50 is the concentration at which the effect is half-maximal. Read a high EC50 as a less potent agent.

This assay concerns the target T1, Solute carrier family 12 member 5 (Homo sapiens, UniProt Q9H2X9).
T1 sequence (Q9H2X9 whole entry): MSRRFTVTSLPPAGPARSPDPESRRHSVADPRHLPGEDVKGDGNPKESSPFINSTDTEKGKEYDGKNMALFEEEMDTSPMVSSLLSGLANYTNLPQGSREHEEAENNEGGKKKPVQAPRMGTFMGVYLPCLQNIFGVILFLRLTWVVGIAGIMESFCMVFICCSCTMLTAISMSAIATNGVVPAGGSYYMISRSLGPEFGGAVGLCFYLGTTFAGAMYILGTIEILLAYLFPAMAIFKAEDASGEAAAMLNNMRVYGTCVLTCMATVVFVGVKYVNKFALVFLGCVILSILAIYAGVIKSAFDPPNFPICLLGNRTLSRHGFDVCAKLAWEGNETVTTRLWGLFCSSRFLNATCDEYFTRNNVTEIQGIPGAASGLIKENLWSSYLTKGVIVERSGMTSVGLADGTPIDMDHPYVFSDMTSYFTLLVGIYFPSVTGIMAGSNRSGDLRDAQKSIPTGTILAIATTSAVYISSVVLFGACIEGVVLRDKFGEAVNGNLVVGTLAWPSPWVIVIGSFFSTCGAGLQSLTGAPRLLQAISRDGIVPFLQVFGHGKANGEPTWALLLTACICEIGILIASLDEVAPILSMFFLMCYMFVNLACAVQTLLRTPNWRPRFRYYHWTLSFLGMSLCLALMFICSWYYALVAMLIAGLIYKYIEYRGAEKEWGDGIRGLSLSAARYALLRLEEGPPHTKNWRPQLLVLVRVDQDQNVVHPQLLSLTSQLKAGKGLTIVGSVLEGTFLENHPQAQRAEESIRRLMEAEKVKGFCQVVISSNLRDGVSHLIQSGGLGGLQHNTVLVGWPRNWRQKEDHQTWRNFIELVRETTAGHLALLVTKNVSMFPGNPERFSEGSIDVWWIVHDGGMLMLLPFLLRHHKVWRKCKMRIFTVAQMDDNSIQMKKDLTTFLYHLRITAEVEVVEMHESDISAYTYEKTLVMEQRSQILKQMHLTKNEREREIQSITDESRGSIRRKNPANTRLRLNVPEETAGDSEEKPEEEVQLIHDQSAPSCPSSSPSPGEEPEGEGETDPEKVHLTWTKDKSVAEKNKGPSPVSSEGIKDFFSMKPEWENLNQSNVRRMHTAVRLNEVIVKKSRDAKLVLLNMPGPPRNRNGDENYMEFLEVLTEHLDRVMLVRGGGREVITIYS
In words: KCC2 modulator potency by thallium flux, dose response, cell-based, HEK293 KCC2, FluoZin-2 fluorescence (AID 1736).

For `O=C(NCCc1cn2ccccc2n1)c1cc(COc2c(F)cccc2F)on1` [5-[(2,6-difluorophenoxy)methyl]-N-(2-imidazo[1,2-a]pyridin-2-ylethyl)-1,2-oxazole-3-carboxamide], the EC50 is 7.6 µM. Still for that read-out and setting: then `O=C(NCc1cccnc1)c1ccc(COc2ccccc2Br)o1` [5-[(2-bromanylphenoxy)methyl]-N-(pyridin-3-ylmethyl)furan-2-carboxamide], with 9.14 µM; and `O=C(Nc1cccnc1)c1ccc(COc2ccccc2Br)o1` [5-[(2-bromanylphenoxy)methyl]-N-pyridin-3-yl-furan-2-carboxamide], with 5.19 µM; and `Sc1nnc(CNc2cccc(Cl)c2)o1` [5-[(3-chloroanilino)methyl]-3H-1,3,4-oxadiazole-2-thione], with 1.49 µM. On the same count and under the same terms, in the case of `Sc1nnc(Nc2ccccc2)s1` [5-anilino-3H-1,3,4-thiadiazole-2-thione] it was 2.5 µM; in that of `CCCn1c(N)c(C(=O)CSc2nnc(Cc3ccccc3)o2)c(=O)n(C)c1=O` [6-amino-3-methyl-5-[1-oxo-2-[[5-(phenylmethyl)-1,3,4-oxadiazol-2-yl]thio]ethyl]-1-propylpyrimidine-2,4-dione], 0.00011 µM. Still for that read-out and setting: in the case of `O=c1[nH]c2ccc(S(=O)(=O)N3CCN(c4ccccc4F)CC3)cc2s1` [6-{[4-(2-fluorophenyl)piperazin-1-yl]sulfonyl}-1,3-benzothiazol-2(3H)-one] it was 8.21 µM. Take `CCc1ccc(Nc2nnc(SCc3cc(=O)n4ccsc4n3)s2)cc1` [7-[[5-(4-ethylanilino)-1,3,4-thiadiazol-2-yl]sulfanylmethyl]-[1,3]thiazolo[3,2-a]pyrimidin-5-one]: the EC50 was 0.281 µM. On the same count and under the same terms, in the case of `O=c1c(-c2cnn(-c3ccccc3)c2)coc2cc(O)ccc12` [7-hydroxy-3-(1-phenyl-1H-pyrazol-4-yl)-4H-chromen-4-one] it was 20.1 µM. Take `O=C(C1CCN(c2nc3ccc(Br)cc3s2)CC1)N1CCC2(CC1)OCCO2` [8-{[1-(6-bromo-1,3-benzothiazol-2-yl)piperidin-4-yl]carbonyl}-1,4-dioxa-8-azaspiro[4.5]decane]: the EC50 amounted to 7.02 µM. Under “inactive by the depositor's call”, `O=[N+]([O-])c1ccc(NC2CCN(Cc3ccccc3)CC2)c([N+](=O)[O-])c1` [(1-benzyl-4-piperidyl)-(2,4-dinitrophenyl)amine] gave an EC50 of 5.49 µM.

In turn, `c1ccc(-n2cnc3cc(NCc4ccncc4)ccc32)cc1` [(1-phenylbenzimidazol-5-yl)-(4-pyridylmethyl)amine] returned an EC50 of 5.54 µM.

`COc1ccc(NC(=S)NC(N)=Nc2nc(C)c3ccccc3n2)cc1` [(1E)-1-[amino-[(4-methyl-2-quinazolinyl)amino]methylidene]-3-(4-methoxyphenyl)thiourea] came in with an EC50 of 70.5 µM.

`COc1cc(C(=S)N2CCOCC2)cc(OC)c1OC(=O)Cc1ccc(F)cc1` [(2,6-dimethoxy-4-morpholin-4-ylcarbothioyl-phenyl) 2-(4-fluorophenyl)ethanoate] came in with an EC50 of 3.98 µM. The same measure, in the same setting: then `COc1cc(C(=S)N2CCOCC2)cc(OC)c1OC(=O)Cc1ccccc1` [(2,6-dimethoxy-4-morpholin-4-ylcarbothioyl-phenyl) 2-phenylethanoate], with 1.16 µM; and `c1ccc(-c2csc(N=NCc3ccco3)n2)cc1` [(2-furfurylideneamino)-(4-phenylthiazol-2-yl)amine], with 65 µM. Turning to `COc1cc(C(=S)N2CCOCC2)ccc1OC(=O)Cc1ccc(F)cc1` [(2-methoxy-4-morpholin-4-ylcarbothioyl-phenyl) 2-(4-fluorophenyl)ethanoate], the EC50 turned out to be 137 µM. Still for that read-out and setting: in the case of `CC1Cc2ccccc2N1C(=O)c1ccc(N2CCCCC2)c([N+](=O)[O-])c1` (centres undefined) [(2-methyl-2,3-dihydroindol-1-yl)-(3-nitro-4-piperidin-1-yl-phenyl)methanone] it was 1.59 µM. Same read-out and setting: then `CC1Cc2ccccc2N1C(=O)c1ccc(N2CCCC2)c([N+](=O)[O-])c1` (centres undefined) [(2-methyl-2,3-dihydroindol-1-yl)-(3-nitro-4-pyrrolidin-1-yl-phenyl)methanone], with 0.361 µM.

The record behind these values is BindingDB's records for doi:10.7270/Q2Q52N1X (Vanderbilt Screening Center for GPCRs, Ion Channels and …, 2009).
